# Ends that are not written are not given here.
# Test system: subjects with bilateral patello-femoral knee osteoarthritis
# Assay: Randomized double-blind placebo-controlled clinical study of TPX-100, safety and tolerability
# Type: in vivo, human
# [1] = intra-articular, four weekly doses, throughout the study period
substance,measurement,setting,value
TDLQERGDNDISPFSGDGQPFKD-NH2 [TPX-100],Dose-limiting toxicities,"Part A, 20, 50, 100 and 200 mg per intra-articular injection, four weekly injections",no dose-limiting toxicities
same,Severe adverse events related to the drug treatment,[1],no severe adverse events likely or possibly related to the drug treatment
same,Severity of treatment-related adverse events,[1],"mild or moderate, transient"
same,Safety and tolerability of the treatments,"intra-articular, four weekly doses, throughout the study period (12 months)",safe and well tolerated

# Source: patent publication US10849958B2, “Knee pain evaluation and management via WOMAC and KOOS systems” (ORTHOTROPHIX, INC., priority 2017, dated 2020)
